Data taken from patent publication US20020028836A1, “Potassium channel openers” (priority 2000, published 2002).
Like-named read-outs stand apart in the source and are kept apart here.

Experiments:
[1] = test system: primary cultured guinea-pig urinary bladder (GPB) cells; assay: Membrane hyperpolarization (MHP) assay, DiBAC(4)3 / FLIPR; assay type: cell-based; conditions: for EC50: concentration that elicits 50% of the maximal response for the test sample
Experimental: Compounds were evaluated for potassium channel opening activity using primary cultured guinea-pig urinary bladder (GPB) cells.
For the preparation of urinary bladder smooth muscle cells, urinary bladders were removed from male guinea-pigs (Hartley, Charles River, Wilmington, Mass.) weighing 300-400 g and placed in ice-cold Ca^2+-free Krebs solution (Composition, mM: KCl, 2.7; KH2PO4, 1.5; NaCl, 75; Na2HPO4, 9.6; Na2HPO4.7H2O, 8; MgSO4, 2; glucose, 5; HEPES, 10; pH 7.4). Cells were isolated by enzymatic dissociation as previously described with minor modifications (Klockner, U. and Isenberg, G., Pflugers Arch. (1985), 405, 329-339), hereby incorporated by reference. The bladder was cut into small sections and incubated in 5 mL of the Kreb's solution containing I mg/mL collagenase (Sigma, St. Louis, Mo.) and 0.2 mg/mL pronase (Calbiochem, La Jolla, Calif.) with continuous stirring in a cell incubator for 30 minutes. The mixture was then centrifuged at 1300×g for 5 minutes, and the pellet resuspended in Dulbecco's PBS (GIBCO, Gaithersburg, Md.) and recentrifuged to remove residual enzyme. The cell pellet was resuspended in 5 mL growth media (composition: Dulbecco's modified Eagle's medium supplemented with 10% fetal bovine serum, 100 units/mL penicillin, 100 units/mL streptomycin and […] amphotericin B) and further dissociated by pipetting the suspension through a flame-polished Pasteur pipette and passing it through a polypropylene mesh membrane (Spectrum, Houston, Tex.). The cell density was adjusted to 100,000 cells/mL by resuspension in growth media. Cells were plated in clear-bottomed black 96-well plates (Packard) for membrane potential studies at a density of 20,000 cells/well and maintained in a cell incubator with 90% air: 10% CO2 until confluent. Cells were confirmed to be of smooth muscle type by cytoskeletal staining using a monoclonal mouse anti human-α-smooth muscle actin (Biomeda, Foster City, Calif.).
Functional activity at potassium channels was measured by evaluating changes in membrane potential using the bis-oxonol dye DiBAC(4) (Molecular Probes) in a 96-well cell-based kinetic assay system, Fluorescent Imaging Plate Reader (FLIPR) (K. S. Schroeder et al., J. Biomed. Screen., v. 1 pp. 75-81 (1996)), hereby incorporated by reference. DiBAC(4)3 is an anionic potentiometric probe which partitions between cells and extracellular solution in a membrane potential-dependent manner. With increasing membrane potential (for example, K^+ depolarization), the probe further partitions into the cell; this is measured as an increase in fluorescence due to dye interaction with intracellular lipids and proteins. Conversely, decreasing membrane potential (hyperpolarization by potassium channel openers) evokes a decrease in fluorescence.
Confluent guinea-pig urinary bladder cells cultured in black clear-bottomed 96-well plates were rinsed twice with […] assay buffer (composition, mM: HEPES, 20; NaCl, 120; KCl, 2; CaCl2, 2; MgCl2, 1; glucose, 5; pH 7.4 at 25° C.) containing 5 μM DiBAC(4)3 and incubated with […] of the buffer in a cell incubator for 30 minutes at 37° C. to ensure dye distribution across the membrane. After recording the baseline fluorescence for 5 minutes, the reference or test compounds, prepared at 10 times the concentration in the assay buffer, were added directly to the wells. Changes in fluorescence were monitored for an additional 25 minutes. Hyperpolarization responses were corrected for any background noise and were normalized to the response observed with 10 μM of the reference compound P1075 (assigned as 100%), a potent opener of smooth muscle KATP channels (Quast et al., Mol. Pharmacol., v. 43 pp. 474-481 (1993)), hereby incorporated by reference.
Routinely, five concentrations of P1075 or test compounds (log or half-log dilutions) were evaluated and the maximal steady-state hyperpolarization values (expressed as % relative to P1075) plotted as a function of concentration. […]

[2] = test system: tissue strips obtained from Landrace pig bladders; assay: Functional potassium channel opening activity in isolated bladder strips (field-stimulated twitch); conditions: for Index: ED50 for P1075 divided by ED50 for the test agonist in a given tissue, averaged; for EC50: amount of agent necessary to cause 50% of the agent's maximal response, read-out: ED50 (the source's name)
Procedure, shortened: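 Mucosa-free female Landrace pig bladder strips in Krebs Ringer bicarbonate (pH 7.4, 37° C., 0.004 mM propranolol), 1.0 g preload, field-stimulated at 0.05 Hz, 0.5 ms, 20 V for twitch. Cumulative concentration-response curves; maximal efficacy as % of P1075, ED50 fitted, potency index = P1075 ED50/test ED50 per tissue, averaged.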

[3] = Cavia porcellus, maximal steady-state hyperpolarization, normalized to response with 10 μM P1075 (100%)
[4] = Sus scrofa, maximal efficacy relative to P1075, field stimulation 0.05 Hz, 0.5 ms, 20 volts

SMILES	EC50 ([1]; Cavia porcellus)	Emax [1, 3]	Index [2]	EC50 ([2]; Sus scrofa)	Emax [2, 4]	EC50 [1]	Maximal Response (% P1075) ([1]; maximal steady-state hyperpolarization, normalized to response with 10 μM P1075 (100%))	EC50 [2]	Efficacy (% P1075) ([2]; maximal efficacy relative to P1075, field stimulation 0.05 Hz, 0.5 ms, 20 volts)
Cc1ccc(C(=O)NC(NC(=S)Nc2cccnc2)c2ccccc2)cc1 (centres unmarked) [Example 34, 4-methyl-N-(phenyl{[(3-pyridinylamino)carbothioyl]amino}methyl)benzamide]	500 nM	80%	0.003	23000 nM	99%				
C=CC(C)(C)CC(NC(=O)c1ccc(Cl)cc1)NC(=N[N+](=O)[O-])Nc1cccnc1 (centres unmarked) [Example 133, 4-chloro-N-(1-{[(nitroimino)(3-pyridinylamino)methyl]amino}-3,3-dimethyl-4-pentenyl)benzamide]	39 nM	106%	0.039	8400 nM	58%				
Cc1ccc(C(=O)NC(NC(=S)Nc2cccc([N+](=O)[O-])c2)C(F)(F)F)cc1 (centres unmarked) [Example 4, 4-methyl-N-(2,2,2-trifluoro-1-{[(3-nitroanilino)carbothioyl]amino}ethyl)benzamide]	300 nM	133%	0.015	18000 nM	89%				
Cc1ccc(C(=O)NC(NC(=S)Nc2cccc([N+](=O)[O-])c2)C(C)(C)C)cc1 (centres unmarked) [Example 25, N-(2,2-dimethyl-1-{[(3-nitroanilino)carbothioyl]amino}propyl)-4-methylbenzamide]	70 nM	103%	0.078	1000 nM	100%				
Cc1ccc(C(=O)NC(NC(=S)Nc2ccccc2F)C(F)(F)F)cc1 (centres unmarked) [Example 11, 4-methyl-N-(2,2,2-trifluoro-1-{[(2-fluoroanilino)carbothioyl]amino}ethyl)benzamide]	510 nM	109%	0.011	19000 nM	100%				
O=C(CCc1ccccc1)NC(NC(=S)Nc1cccc([N+](=O)[O-])c1)C(Cl)(Cl)Cl (centres unmarked) [Example 149, 3-phenyl-N-(2,2,2-trichloro-1-{[(3-nitroanilino)carbothioyl]amino}ethyl)propanamide]	84 nM	129%	0.076	2400 nM	95%				
O=C(NC(NC(=S)Nc1ccccc1)C(F)(F)F)c1ccc(Cl)cc1 (centres unmarked) [Example 20, N-{1-[(anilinocarbothioyl)amino]-2,2,2-trifluoroethyl}-4-chlorobenzamide]	90 nM	85%	0.011	28000 nM	84%				
Cc1ccc(C(=O)NC(NC(=S)Nc2cccc(F)c2)C(F)(F)F)cc1 (centres unmarked) [Example 13, 4-methyl-N-(2,2,2-trifluoro-1-{[(3-fluoroanilino)carbothioyl]amino}ethyl)benzamide]	350 nM	91%	0.022	10000 nM	95%				
Cc1ccc(C(=O)N[C@@H](NC(=S)Nc2cccnc2)C(C)(C)C)cc1 [Example 24, N-((1S)-2,2-dimethyl-1-{[(3-pyridinylamino)carbothioyl]amino}propyl)-4-methylbenzamide]	80 nM	93%	0.007	17000 nM	100%				
Cc1ccc(C(=O)NC(NC(=S)Nc2ccc(F)cc2)C(F)(F)F)cc1 (centres unmarked) [Example 3, 4-methyl-N-(2,2,2-trifluoro-1-{[(4-fluoroanilino)carbothioyl]amino}ethyl)benzamide]	890 nM	79%	0.012	9000 nM	97%				
Cc1ccc(C(=O)NC(NC(=O)Nc2cccnc2)C(Cl)(Cl)Cl)cc1 (centres unmarked) [Example 38, 4-methyl-N-(2,2,2-trichloro-1-{[(3-pyridinylamino)carbonyl]amino}ethyl)benzamide]	100 nM	100%	0.015	7000 nM	98%				
Cc1ccc(C(=O)NC(NC(=S)Nc2ccccc2)C(F)(F)F)cc1 (centres unmarked) [Example 9, N-{1-[(anilinocarbothioyl)amino]-2,2,2-trifluoroethyl}-4-methylbenzamide]	80 nM	104%	0.011	17000 nM	91%				
Cc1ccc(C(=O)NC(NC(=NC#N)Nc2ccccc2F)C(Cl)(Cl)Cl)cc1 (centres unmarked) [Example 47, 4-methyl-N-(2,2,2-trichloro-1-{[(cyanoimino)(2-fluoroanilino)methyl]amino}ethyl)benzamide]	60 nM	98%	0.019	36000 nM	67%				
CC(C)(C)C(NC(=O)c1ccc(Cl)cc1)NC(=N[N+](=O)[O-])Nc1cccnc1 (centres unmarked) [Example 123, 4-chloro-N-(1-{[(nitroimino)(3-pyridinylamino)methyl]amino}-2,2-dimethylpropyl)benzamide]	850 nM	90%	0.028	10000 nM	63%				
Cc1ccc(C(=O)NC(NC(=S)Nc2cc(F)ccc2F)C(F)(F)F)cc1 (centres unmarked) [Example 14, N-(1-{[(2,5-difluoroanilino)carbothioyl]amino}-2,2,2-trifluoroethyl)-4-methylbenzamide]	300 nM	110%	0.027	14000 nM	96%				
Cc1ccc(C(=O)NC(NC(=NC#N)Nc2cccnc2)C(C)(C)C)cc1 (single isomer, unassigned; (+)) [Example 58, (+) N-(1-{[(cyanoimino)(3-pyridinylamino)methyl]amino}-2,2-dimethylpropyl)-4-methylbenzamide]			0.008			650 nM	87 % P1075	12000 nM	59 % P1075
Cc1ccc(C(=O)NC(NC(=S)Nc2cccc(F)c2F)C(F)(F)F)cc1 (centres unmarked) [Example 18, N-(1-{[(2,3-difluoroanilino)carbothioyl]amino}-2,2,2-trifluoroethyl)-4-methylbenzamide]	90 nM	123%	0.020	8000 nM	97%				
CC(C)(C)C(NC(=O)c1ccc(Cl)cc1F)NC(=NC#N)Nc1cccnc1 (centres unmarked) [Example 106, 4-chloro-N-(1-{[(cyanoimino)(3-pyridinylamino)methyl]amino}-2,2-dimethylpropyl)-2-fluorobenzamide]	630 nM	85%	0.010	12000 nM	69%				
Cc1ccc(C(=O)NC(NC(=S)Nc2cccc([N+](=O)[O-])c2)c2ccccc2)cc1 (centres unmarked) [Example 33, 4-methyl-N-[{[(3-nitroanilino)carbothioyl]amino}(phenyl)methyl]benzamide]	220 nM	102%	0.027	12000 nM	80%				
